Data: patent publication US6716851B2, “Substituted 2-aryl-4-arylaminopyrimidines and analogs as activators or caspases and inducers of apoptosis and the use thereof” (Cytovia, Inc., priority 2000, dated 2004)

How the values were obtained:
T-47D cells = assay: Caspase cascade activation (N-(Ac-DEVD)-N'-ethoxycarbonyl-R110 fluorogenic substrate) in T-47D cells; format: cell-based, Human; settings: 48 h incubation
Procedure, shortened: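 EC50 comes from sigmoidal fitting of the net RFU ratio over DMSO control, read at ex 485/em 530 nm 3 h after adding 14 μM Ac-DEVD-R110 in lysolecithin/DTT/PIPES pH 7.2 buffer. Compound (0.016-10 μM final) was applied to cells for 48 h at 37 °C beforehand.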

MDA-MB-435 cells = assay: Cell proliferation assay (GI50) in MDA-MB-435 cells; format: cell-based; settings: Homo sapiens, MDA-MB-435, 48 h
Protocol: [Worded in the source for another cell line; this cell line is reported under the same test.] T-47D cells were grown and harvested as in Example 221. An aliquot of 90 μl of cells (2.2×10^4 cells/ml) was added to a well of a 96-well microtiter plate containing 10 μl of a 10% DMSO in RPMI-1640 media solution containing 1 nM to 100 μM of 4-(3-methoxyanilino)-2-(2-pyridinyl)-6-(trifluoromethyl)pyrimidine (0.1 nM to 10 μM final). An aliquot of 90 μl of cells was added to a well of a 96-well microtiter plate containing 10 μl of a 10% DMSO in RPMI-1640 media solution without compound as the control sample for maximal cell proliferation (AMax). The samples were mixed by agitation and then incubated at 37° C. for 48 h in a 5% CO2-95% humidity incubator. After incubation, the samples were removed from the incubator and 20 μl of CellTiter 96 AQueous One Solution Cell Proliferation^TM reagent (Promega) was added. The samples were mixed by agitation and incubated at 37° C. for 2-4 h in a 5% CO2-95% humidity incubator. Using an absorbance plate reader (Model 1420 Wallac Instruments), an initial reading (T=0) was made approximately 1-2 min after addition of the solution, employing absorbance at 490 nm. This determines the possible background absorbance of the test compounds. No absorbance for 4-(3-methoxyanilino)-2-(2-pyridinyl)-6-(trifluoromethyl)pyrimidine was found at 490 nm. After the 2-4 h incubation, the samples were read for absorbance as above (ATest). […]

**Q.** With `COc1cccc(Nc2cc(C(F)(F)F)nc(-c3ccccn3)n2)c1` [Compound A, 4-(3-methoxyanilino)-2-(2-pyridinyl)-6-(trifluoromethyl)pyrimidine] as the compound, how does the EC50 (T-47D cells; Homo sapiens, T47D, caspase activation potency, read-out: T47 EC50) read?
**A.** The EC50 was 433 nM.

**Q.** What about the “T47 Ratio 48 hr” value (T-47D cells; caspase activity: ratio of net RFU of test compound to control) of the same compound?
**A.** Its value is 29.3.

**Q.** What about the GI50 (MDA-MB-435 cells) of the same compound?
**A.** The GI50 was 4500 nM.
